According to ChEMBL document CHEMBL5247634, “Design, synthesis and anticancer evaluation of selective 2,4-disubstituted pyrimidine CDK9 inhibitors” (Eur J Med Chem, 2022):

Experiments:
Homo sapiens = organism: Homo sapiens; experiment: Selectivity index, ratio of IC50 for CDK2/cyclin A (unknown origin) to IC50 for CDK9/cyclin T1 (unknown origin)
L02 = experiment: Antiproliferative activity against human L02 cells assessed as cell growth inhibition measured after 72 hrs by MTT assay; format: functional, cell-based; details: L02, 72 h
HCT-116 = experiment: Antiproliferative activity against human HCT-116 cells assessed as cell growth inhibition measured after 72 hrs by MTT assay; format: functional, cell-based; details: HCT-116, 72 h
NCI-H1975 = experiment: Antiproliferative activity against human NCI-H1975 cells assessed as cell growth inhibition measured after 72 hrs by MTT assay; format: functional, cell-based; details: NCI-H1975, 72 h
[1] = biological target: Cyclin-dependent kinase 2/cyclin A (Homo sapiens, UniProt P24941); experiment: Inhibition of CDK2/cyclin A (unknown origin) incubated for 1 hr in presence of ATP by ADP-glo luminescent assay; format: protein-complex assay
PANC-1 = experiment: Antiproliferative activity against human PANC-1 cells assessed as cell growth inhibition measured after 72 hrs by MTT assay; format: functional, cell-based; details: PANC-1, 72 h
A-431 = experiment: Antiproliferative activity against human A-431 cells assessed as cell growth inhibition measured after 72 hrs by MTT assay; format: functional, cell-based; details: A-431, 72 h
CDK9/cyclin T1 = CDK9/cyclin T1 (Homo sapiens, UniProt P50750); experiment: Inhibition of CDK9/cyclin T1 (unknown origin) using as PDKtide substrate incubated for 1 hr in presence of ATP by ADP-glo luminescent assay; format: protein-complex assay
CDK9/cyclin T1, sequence (O60563 whole entry): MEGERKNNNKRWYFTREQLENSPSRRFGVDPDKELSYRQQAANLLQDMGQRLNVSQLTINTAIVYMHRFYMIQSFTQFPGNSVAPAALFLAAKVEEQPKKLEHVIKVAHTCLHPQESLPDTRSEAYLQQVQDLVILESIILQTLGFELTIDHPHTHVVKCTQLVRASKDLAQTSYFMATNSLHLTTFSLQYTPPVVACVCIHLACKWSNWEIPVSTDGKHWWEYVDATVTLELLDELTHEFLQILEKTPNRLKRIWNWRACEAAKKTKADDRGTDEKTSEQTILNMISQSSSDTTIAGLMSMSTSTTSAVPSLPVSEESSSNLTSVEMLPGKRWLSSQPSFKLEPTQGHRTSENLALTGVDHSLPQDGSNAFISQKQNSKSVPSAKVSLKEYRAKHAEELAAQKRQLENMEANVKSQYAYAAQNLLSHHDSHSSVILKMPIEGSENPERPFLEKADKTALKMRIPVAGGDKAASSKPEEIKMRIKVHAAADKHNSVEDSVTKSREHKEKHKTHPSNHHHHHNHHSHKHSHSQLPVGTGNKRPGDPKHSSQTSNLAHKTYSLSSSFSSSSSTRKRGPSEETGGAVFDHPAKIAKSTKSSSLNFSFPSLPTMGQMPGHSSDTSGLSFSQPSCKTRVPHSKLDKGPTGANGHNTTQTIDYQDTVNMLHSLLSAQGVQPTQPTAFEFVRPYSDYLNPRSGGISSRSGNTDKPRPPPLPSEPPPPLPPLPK
CDK9/cyclin T1, sequence (P50750 whole entry): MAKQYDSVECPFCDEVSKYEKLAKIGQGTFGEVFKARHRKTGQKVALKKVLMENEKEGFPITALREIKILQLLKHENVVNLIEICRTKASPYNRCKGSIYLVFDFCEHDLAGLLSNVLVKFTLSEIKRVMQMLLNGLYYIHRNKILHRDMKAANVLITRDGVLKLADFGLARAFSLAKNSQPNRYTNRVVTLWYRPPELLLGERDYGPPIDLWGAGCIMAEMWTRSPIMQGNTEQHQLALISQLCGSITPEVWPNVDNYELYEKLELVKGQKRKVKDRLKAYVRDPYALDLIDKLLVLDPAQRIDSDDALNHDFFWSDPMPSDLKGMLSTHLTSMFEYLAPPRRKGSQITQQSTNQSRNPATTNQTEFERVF

A549 = experiment: Antiproliferative activity against human A549 cells assessed as cell growth inhibition measured after 72 hrs by MTT assay; format: functional, cell-based; details: A549, 72 h
[2] = biological target: Cyclin-dependent kinase 2 (Homo sapiens, UniProt P24941)
Description: Inhibition of CDK2 (unknown origin)

Structure (SMILES) | Selectivity Index (Homo sapiens) | IC50 (L02) [nM] | IC50 (HCT-116) [nM] | IC50 (NCI-H1975) [nM] | IC50 [1] [nM] | IC50 (PANC-1) [nM] | IC50 (A-431) [nM] | IC50 (CDK9/cyclin T1) [nM] | IC50 (A549) [nM] | IC50 [2] [nM]
CCN(CC)CCNC(=O)c1ccc(Nc2nccc(-c3ccc(F)cc3OCc3ccccc3)n2)cc1 | 29.8 | 3690 | 130 | 1200 | 796 | 1080 | 1320 | 26.7 |  | 
O=C(NCCF)c1ccc(Nc2nccc(-c3ccc(F)cc3OCc3ccccc3)n2)cc1 |  | 35400 | 17600 | 28500 |  | 52500 | 37100 |  |  | 
O=C(NCCO)c1ccc(Nc2nccc(-c3ccc(F)cc3OCc3ccccc3)n2)cc1 |  | 23300 | 15300 | 19000 |  | 7190 | 6330 |  | 17700 | 
COc1ccccc1-c1cc(Nc2cccc(CS(N)(=O)=O)c2)ncn1 |  |  |  |  |  |  |  |  |  | > 2000
CNCCNC(=O)c1ccc(Nc2nccc(-c3ccc(F)cc3OCc3ccccc3)n2)cc1 |  | 18600 | 3300 | 1150 |  | 3900 | 2840 |  | 3800 | 
CN1CCN(C(=O)c2ccc(Nc3nccc(-c4ccc(F)cc4OCc4ccccc4)n3)cc2)CC1 |  | 5280 | 5560 | 1210 |  | 2480 | 1050 |  | 2380 | 
CC(C)N(CCNC(=O)c1ccc(Nc2nccc(-c3ccc(F)cc3OCc3ccccc3)n2)cc1)C(C)C | 15.3 | 2080 | 370 | 860 | 915 | 560 | 590 | 59.6 |  | 
CC(C)c1c2cc(-c3ccnc(N[C@H]4CC[C@H](NC5CCOCC5)CC4)n3)ccc2nn1C |  |  |  |  |  |  |  |  |  | 400
O=C(NCCCN1CCOCC1)c1ccc(Nc2nccc(-c3ccc(F)cc3OCc3ccccc3)n2)cc1 |  | 14400 | 2750 | 2710 |  | 2000 | 2520 |  | 4040 | 
COc1cc(F)ccc1-c1ccnc(NC(=O)[C@H]2CCC[C@@H](NC(C)=O)C2)c1 |  |  |  |  |  |  |  |  |  | 2460
